# Source: patent publication US20170035049A1, “BIOCIDAL PRODUCTS” (SALVECO, priority 2014, published 2017)
# Experiment: Ultimate aerobic biodegradability in aqueous medium (OECD 301 A)
# Settings: on the fourteenth day
# Description: This test is an evaluation in an aqueous medium of the ultimate aerobic biodegradability of a sample of the concentrated formulation according to the invention. This test is performed according to the provisions of the OECD 301 A method using a sample containing a dissolved organic carbon content of 10 mg/l (DOC for dissolved organic carbon). The evolution of the disappearance of dissolved organic carbon is followed during a period of 28 days in the “Concentrated disinfection” test at 10 mg/l of DOC. The physical-chemical analysis is performed according to the ASTM […] standard. The attached FIG. 1 represents the resulting curves of degradation of the organic carbon dissolved after 28 days. The reference substance corresponds to sodium acetate.
structure (smiles),measurement,value
CC(=O)[O-].[Na+] [sodium acetate],percentage of degradation of the reference substance,99%
